According to patent EP1219604A1, “METHOD FOR IMPROVING THE SOLUBILITY OF TRICYCLIC AMINO ALCOHOL DERIVATIVES” (Asahi Kasei Kabushiki Kaisha, priority 1999, dated 2001):
Read-outs that look alike come from different tables or passages of the source.

Columns and labels:
[1] = Solubility in water, 1st fluid and 2nd fluid of the Japanese pharmacopeia disintegration test (shaking, filtration, HPLC); format: physicochemical; settings: thermodynamic from solid
Procedure: That is, the solutions used were the water specified in the disintegration test method of the 13th edition of the Japanese pharmacopeia, the 1st fluid (a model of human gastric juice) and the 2nd fluid(a model of human intestinal juice). The processes for preparing them are as follows:
The 1st fluid (a model of human gastric juice) was an aqueous solution (pH about 1.2) prepared by dissolving sodium chloride (2.0 g) and hydrochloric acid (7.0 mL) in an amount of water such that the total volume is 1,000 mL.
The 2nd fluid (a model of human intestinal juice) was an aqueous solution (pH about 6.8) prepared by mixing a 0.2 M potassium dihydrogen phosphate aqueous solution (250 mL) with a 0.2 N sodium hydroxide aqueous solution (118 mL) and an amount of water such that the total volume is 1,000 mL.
The present compound (Compound A, B, C or D) in the amount of 20 mg was added to each solution (40 mL) set forth above, which was then shaken with a recipro-shaker (170 rpm) for 2 hours. Each sample (4 mL) obtained at 15, 30, 45, 60 and 120 minutes was filtered through a filter having a pore diameter of 0.45 µm to give a sample solution. The concentration of the said compound in the sample solution was determined by high performance liquid chromatography and the solubility was calculated. The high performance liquid chromatographic measurement was performed with HITACHI D-7000 (wave length: 254 nm; column: YMC-PACK C18; column temperature: 40°C; injection volume: 10 µL; flow rate: 1 mL/min; mobile phase: a solution obtained by dissolving sodium 1-octanesufonate (4.3 g) in a solution of phosphoric acid (1 mL) in water (1000 mL), and adding acetonitrile (400 mL) to 600 mL of the thus obtained solution . The retention time of each of Compounds A, B, C and D was about 20 minutes, about 14 minuets, about 25 minutes and about 27 minutes, respectively. […]
In this connection, the measurement was carried out according to the procedure of Reference Example 1.

[2] = Crystallinity by powder X-ray diffractometry; format: physicochemical; settings: for crystallinity: equation of crystallinity
Source text: Whether a compound of the general formula (1) is amorphous or not, or the degree of amorphous status thereof can be determined based on its crystallinity, for example, measured by powder X-ray diffractometry. Generally, the degree of amorphous status can be indicated with the following equation. Degree of Amorphous status = 100 - Crystallinity [formula]
Powder X-ray diffractometry is a method comprising irradiating a powder sample with X-ray to compulsively oscillate electrons contained in the sample material, and measuring at each angle of diffraction the diffraction intensity of the coherent scattering X-ray caused by the compulsively oscillated electrons. The measurement data is indicated with the X-ray diffraction pattern as a diffraction intensity with respect to each angle of diffraction. […] Therefore, an amorphous substance can be distinguished from a crystalline substance based on their X-ray diffraction patterns and/or crystallinities. The measurement by powdery X-ray diffractometry in accordance with the present invention can be carried out with Shimadzu Powder X-ray Diffractometer (XRD-6000) under the following measurement conditions.
• Anticathode: Cu • X-ray tube voltage: 40 kV • X-ray tube current: 30 mA • Goniometer • Driving axle: θ-2θ • Scanning range: 3-49.98° • Scanning rate: 2°/min
The crystallinity was obtained with the soft of Shimazu Powder X-ray Diffractometer by carrying out the corrected calculation treatment of the Lorentz polarization factor of the measured data, calculating the integrated intensity of the peak derived from crystalline substance (Icr) and the integrated intensity of the peak derived from amorphous substance (Ia),respectively and calculating the concentration of crystalline moiety in the test sample, that is the crystallinity based on the ratio thereof by the following equation: x =(1)/(1 + K ×(I a)/(I cr))× 100 [formula] wherein X is a crystallinity; Icr is an integrated intensity of crystalline moiety; Ia is an integrated intensity of amorphous moiety; K is a ratio of the crystalline moiety of X ray intensity scattered from a certain amount of a material to the amorphous moiety thereof (the calculation is usually done under K=1).
Each standard sample was subjected to a powder X-ray diffraction measurement to determine the peak height and crystallinity of each standard sample (the powder X-ray diffraction pattern of the standard samples 1, 2, 3 and 4 being shown in Figures 1, 8, 9 and 10, respectively). A measurement by powdery X-ray diffractometry was carried out with Shimadzu Powder X-ray Diffractometer (XRD-6000) under the following measurement conditions.
Measurement condition: • Anticathode: Cu • X-ray tube voltage: 40 kV • X-ray tube current: 30 mA • Goniometer • Driving axle: θ-2θ • Scanning range: 3-50° • Scanning rate: 2°/min
The crystallinity was calculated with the soft of Shimadzu Powder X-ray Diffractometer. The thus obtained crystallinity of each standard sample was as follows:
These measurements were carried out based on the height of a diffraction peak as an indication, wherein the diffraction peak is characteristic of Compound A. The characteristic diffraction peak is a diffraction peak which can be distinguished from the diffraction peak derived from a pharmaceutically acceptable carrier and can characterize Compound A. Representative examples of the diffraction peak characteristic of Compound A include peaks at θ-2θ of about 8.5°, about 12.8°, about 16.2°, about 20.4°, about 21.4°, about 25.2° and about 26.9°. It is preferred to select a diffraction peak in which the relation between the height of diffraction peak and the crystallinity has a clear linearity.
With respect to each diffraction peak, a graph showing the correlation between the peak height and the crystallinity was made in which the peak height of each standard sample (vertical axis) is potted against the crystallinity (horizontal axis). […]

[3] = pH 1.2, simulated gastric fluid, 1st fluid (model of human gastric juice, pH about 1.2), after 2 hours, crystal form, read-out: Solubility (mg/mL) 1st fluid
[4] = pH 6.8, fassgf or other biorelevant, 2nd fluid (model of human intestinal juice, pH about 6.8), after 2 hours, crystal form, read-out: Solubility (mg/mL) 2nd fluid
[5] = water, solubility after 2 hours, compound in crystal form, 20 mg in 40 mL, read-out: Solubility (mg/mL) Water
[6] = pH 1.2, simulated gastric fluid
[7] = pH 6.8, fassgf or other biorelevant

SMILES	solubility at 2 h [1, 3] [mg/mL]	solubility at 2 h [1, 4] [mg/mL]	solubility at 2 h [1, 5] [mg/mL]	crystallinity, another lot separately prepared [2] [%]	crystallinity [2] [%]	solubility at 2 h [1, 6] [mg/mL]	solubility at 2 h [1, 7] [mg/mL]	solubility at 2 h ([1]; water) [mg/mL]
CS(=O)(=O)Nc1cccc([C@@H](O)CNCCOc2ccc3c(c2)[nH]c2ccccc23)c1.Cl [Compound A, (R)-N-[3-[2-[2-(9H-carbazol-2-yloxy)ethylamino]-1-hydroxyethyl]phenyl]methanesulfonamide hydrochloride]	0.002	0.005	0.123	88.8	83.5	–	–	–
CS(=O)(=O)Nc1cc([C@@H](O)CNCCOc2ccc3c(c2)[nH]c2ccccc23)ccc1Cl.Cl [Compound C, (R)-N-[5-[2-[2-(9H-carbazol-2-yloxy)ethylamino]-1-hydroxyethyl]-2-chlorophenyl]methanesulfonamide hydrochloride]	–	–	–	72.0	70.3	0.008	0.014	0.471
CS(=O)(=O)Nc1cc([C@@H](O)CNCCOc2ccc3c(c2)[nH]c2ccccc23)ccc1O.O=C(O)C(O)C(O)C(=O)O [Compound B, (R)-N-[5-[2-[2-(9H-carbazol-2-yloxy)ethylamino]-1-hydroxyethyl]-2-hydroxyphenyl]methanesulfonamide D-tartrate]	0.003	0.003	1.34	70.5	61.1	–	–	–
CS(=O)(=O)Nc1cc([C@@H](O)CNCCOc2ccc3c(c2)[nH]c2ccccc23)ccc1Br.Cl [Compound D, (R)-N-[5-[2-[2-(9H-carbazol-2-yloxy)ethylamino]-1-hydroxyethyl]-2-bromophenyl]methanesulfonamide hydrochloride]	–	–	–	–	–	0.035	0.012	0.701
